Measured values: patent publication US8518715B2, “Bifunctional polyazamacrocyclic chelating agents” (Nordion (Canada) Inc., priority 2006, dated 2013)

Assays:
Type in all cases: physicochemical
[1] = Effect of [ligand]/[111In3+] on the percent complexation
Protocol: (§1) A polyazamacrocyclic ligand ((L)-p-NO2-Bz-PCTA; (D)-p-NO2-Bz-PCTA; (L)-p-NCS-Bz-PCTA; (±)-p-NO2-Bz-DOTA, (±)-NPCTA, (±)-OXO and (L)-p-NO2-Bz-OXO) was combined with a metal ion (^90Y^3+, ^111In^3+, ^177Lu^3+) at room temperature in buffer at a molar ratio of the ligand to the metal ion of 100:1 for kinetic studies, 200:1 for stability studies or at values ranging from 2:1 to 200:1 for the molar ratio studies.
(§2) Complexation studies involving ^90Y^3+ and ^111In^3+ were conducted with 50-100 mM sodium acetate buffer, pH 5.0-7.0, while complexation studies involving ^177Lu^3+ were performed with 50 mM-100 mM sodium acetate buffer, pH 4-5.
(§3) 1 μL samples were taken at 10 minute intervals for kinetic studies, after 60 minutes in experiments studying the effect of the value of [ligand]/[metal ion] on the % complexation of the ligand, and at spaced intervals of 1-3 days for experiments studying the stability of complexes formed using the ligand of the present invention. […] The silica gel paper is cut in half and each half is measured in a gamma well counter. […] Each result shown in FIGS. 4-9 is the average of three separate trials.

[2] = Kinetics of complexation of polyazamacrocyclic ligand with 177Lu3+; conditions: ^177Lu^3+; for time after which the maximum percent of complexation was observed / percent complexation of metal ion (in words): ligand:metal 100:1; for initial rate / kinetics of complexation (in words): ligand:metal 100:1, room temperature; for percent complexation after 10 minutes: ligand:metal 100:1, 10 minutes
Protocol: as §1, §2, §3

[3] = Kinetics of complexation of polyazamacrocyclic ligand with 90Y3+; conditions: ^90Y^3+; for initial rate / kinetics of complexation (in words): ligand:metal 100:1, room temperature; for percent complexation of metal ion (in words): ligand:metal 100:1
Protocol: as §1, §2, §3

[4] = Effect of [ligand]/[177Lu3+] on the percent complexation
Protocol: as §1, §2, §3

[5] = Kinetics of complexation of polyazamacrocyclic ligand with 111In3+; conditions: ^111In^3+; for initial rate / kinetics of complexation (in words): ligand:metal 100:1, room temperature
Protocol: as §1, §2, §3

[6] = Effect of [ligand]/[90Y3+] on the percent complexation
Protocol: as §1, §2, §3

[7] = molar ratio of ligand/^111In^3+ of 5:1, after 60 minutes

Structure (SMILES) | percent complexation [1, 7] [%] | time after which the maximum percent of complexation was observed [2] [min] | initial rate / kinetics of complexation (in words) [2] | initial rate / kinetics of complexation (in words) [3] | initial rate / kinetics of complexation (in words) [5] | percent complexation of metal ion (in words) [2] | percent complexation after 10 minutes [2] [%] | percent complexation of metal ion (in words) [3] | other results
COc1ccc([N+](=O)[O-])cc1C(C(=O)O)N1CCN(CC(=O)O)Cc2cccc(n2)CN(CC(=O)O)CC1 (racemic) [(±)-NPCTA, 2,2′-(6-(carboxy(2-methoxy-5-nitrophenyl)methyl)-3,6,9,15-tetraazabicyclo[9.3.1]pentadeca-1(15),11,13-triene-3,9-diyl)diacetic acid] | ~76 | 50 | relatively slower | relatively slower | relatively slower | – | – | – | percent complexation ([4]; molar ratio of ligand/^177Lu^3+ of greater than 20:1, after 60 minutes): < 95%; percent complexation ([6]; molar ratio of ligand/^90Y^3+ of greater than 20:1, after 60 minutes): < 90%
O=C(O)CN1CCOCCN(CC(=O)O)CCN(CC(=O)O)CC1 (racemic) [(±)-OXO, 2,2′,2″-(1-oxa-4,7,10-triazacyclododecane-4,7,10-triyl)triacetic acid] | – | – | – | – | fastest | highest | ~95 | highest | –
O=C(O)CN1CCN(CC(=O)O)CCN(CC(=O)O)C(Cc2ccc([N+](=O)[O-])cc2)CN(CC(=O)O)CC1 (racemic) [(±)-p-NO2-Bz-DOTA, 2,2′,2″,2′″-(2-(4-nitrobenzyl)-1,4,7,10-tetraazacyclododecane-1,4,7,10-tetrayl)tetraacetic acid] | ~94 | 40 | – | – | – | highest | ~95 | highest | percent complexation ([1]; molar ratio of ligand/^111In^3+ of greater than 20:1, after 60 minutes): ≤ 95%; maximum values of complexation after 40 minutes ([5]; ligand:metal 100:1, after 40 minutes): ~89%
O=C(O)CN1CCN(CC(=O)O)C[C@@H](Cc2ccc([N+](=O)[O-])cc2)N(CC(=O)O)Cc2cccc(n2)C1 [(D)-p-NO2-Bz-PCTA, 2,2′,2″-((4R)-4-(4-nitrobenzyl)-3,6,9,15-tetraazabicyclo[9.3.1]pentadeca-1(15),11,13-triene-3,6,9-triyl)triacetic acid] | – | – | – | – | – | – | ~91 | – | percent complexation ([1]; molar ratio of ligand/^111In^3+ of 10:1, after 60 minutes): ~95%; percent complexation ([6]; molar ratio of ligand/^90Y^3+ of 10:1, after 60 minutes): ~95%
O=C(O)CN1CCOCCN(CC(=O)O)[C@@H](Cc2ccc([N+](=O)[O-])cc2)CN(CC(=O)O)CC1 [(L)-p-NO2-Bz-OXO, (S)-2,2′,2″-(5-(4-nitrobenzyl)-1-oxa-4,7,10-triazacyclododecane-4,7,10-triyl)triacetic acid] | – | – | fastest | – | fastest | highest | – | highest | –
O=C(O)CN1CCN(CC(=O)O)C[C@H](Cc2ccc([N+](=O)[O-])cc2)N(CC(=O)O)Cc2cccc(n2)C1 [(L)-p-NO2-Bz-PCTA, 2,2′,2″-((4S)-4-(4-nitrobenzyl)-3,6,9,15-tetraazabicyclo[9.3.1]pentadeca-1(15),11,13-triene-3,6,9-triyl)triacetic acid] | – | – | fastest | fastest | – | highest | – | highest | percent complexation after 10 minutes ([3]; ligand:metal 100:1, 10 minutes): 95%; percent complexation ([4]; molar ratio of ligand/^177Lu^3+ of 5:1, after 60 minutes): ~95%; percent complexation after 10 minutes ([5]; ligand:metal 100:1, 10 minutes): ~95%
